According to PMC6007963, “An ^18F-Labeled Poly(ADP-ribose) Polymerase Positron Emission Tomography Imaging Agent” (Journal of Medicinal Chemistry, 2018):
Where two headings read alike, the source gives them in different places.

Legend:
[1] = lipophilicity (log Poct) by C-18 reverse-phase HPLC; assay type: physicochemical; conditions: C-18 reverse-phase HPLC column
human serum albumin = human serum albumin (Homo sapiens, UniProt P02768); experiment: percentage plasma protein binding by human serum albumin coated HPLC column; assay type: in vitro ADME; conditions: for fraction unbound: human, read-out: %PPB (converted)
Chain of human serum albumin (P02768 25-609): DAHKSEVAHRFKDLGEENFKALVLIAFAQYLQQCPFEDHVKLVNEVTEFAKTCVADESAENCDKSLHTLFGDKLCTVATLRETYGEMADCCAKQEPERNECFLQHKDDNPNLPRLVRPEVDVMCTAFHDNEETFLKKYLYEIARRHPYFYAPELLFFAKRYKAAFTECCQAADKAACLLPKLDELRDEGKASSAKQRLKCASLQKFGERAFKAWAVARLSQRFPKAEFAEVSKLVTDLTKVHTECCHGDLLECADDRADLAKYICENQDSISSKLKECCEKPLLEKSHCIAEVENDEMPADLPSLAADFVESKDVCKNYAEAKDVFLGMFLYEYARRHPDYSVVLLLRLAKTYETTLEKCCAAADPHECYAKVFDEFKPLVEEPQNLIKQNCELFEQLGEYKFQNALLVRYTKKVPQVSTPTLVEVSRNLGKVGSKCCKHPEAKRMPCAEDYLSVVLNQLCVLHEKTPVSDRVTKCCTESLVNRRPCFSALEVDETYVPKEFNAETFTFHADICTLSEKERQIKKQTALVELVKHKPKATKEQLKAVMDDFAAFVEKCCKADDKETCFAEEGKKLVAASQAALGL

PARP-1 = PARP-1 (Homo sapiens, UniProt P09874); experiment: cell-free PARP-1 IC50 assay (colorimetric dose-response)
Chain of PARP-1 (P09874 whole entry, species assumed): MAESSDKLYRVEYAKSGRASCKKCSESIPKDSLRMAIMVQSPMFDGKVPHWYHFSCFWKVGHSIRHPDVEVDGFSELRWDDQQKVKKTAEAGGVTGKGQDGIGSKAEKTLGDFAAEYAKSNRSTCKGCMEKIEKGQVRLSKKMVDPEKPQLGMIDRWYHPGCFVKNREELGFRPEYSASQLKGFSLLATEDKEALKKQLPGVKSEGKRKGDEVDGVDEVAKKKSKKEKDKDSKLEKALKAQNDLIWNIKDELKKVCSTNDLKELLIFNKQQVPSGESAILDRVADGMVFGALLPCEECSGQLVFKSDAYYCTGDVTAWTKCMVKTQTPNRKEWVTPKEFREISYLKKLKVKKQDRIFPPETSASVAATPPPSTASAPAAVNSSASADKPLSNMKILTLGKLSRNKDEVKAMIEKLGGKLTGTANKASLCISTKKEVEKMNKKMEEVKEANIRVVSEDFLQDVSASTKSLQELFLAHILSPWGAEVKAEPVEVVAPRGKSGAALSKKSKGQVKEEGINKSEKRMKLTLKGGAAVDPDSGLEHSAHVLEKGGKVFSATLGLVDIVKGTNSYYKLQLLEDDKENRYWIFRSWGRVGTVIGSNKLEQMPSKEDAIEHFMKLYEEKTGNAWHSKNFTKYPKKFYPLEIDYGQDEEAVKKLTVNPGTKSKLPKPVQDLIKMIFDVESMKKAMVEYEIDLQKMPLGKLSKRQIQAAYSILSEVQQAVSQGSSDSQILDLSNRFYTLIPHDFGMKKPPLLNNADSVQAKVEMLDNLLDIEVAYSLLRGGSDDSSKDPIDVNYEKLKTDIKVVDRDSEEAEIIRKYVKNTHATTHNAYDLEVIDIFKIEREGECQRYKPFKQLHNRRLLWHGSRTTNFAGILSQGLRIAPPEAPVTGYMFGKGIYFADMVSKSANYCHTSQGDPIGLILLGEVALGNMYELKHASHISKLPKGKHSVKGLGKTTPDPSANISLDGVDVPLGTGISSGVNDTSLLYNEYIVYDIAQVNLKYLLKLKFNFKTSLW

mouse plasma stability = assay type: in vitro ADME
From the text: (§1) However, these were still within the optimal range for a nuclear imaging agent. […] Collectively, the optimal physiochemical properties and low nanomolar PARP cell-free and cellular IC50 values supported further investigation of 20 as a potential radiotracer for PARP. In the body, radiotracers can be exposed to a number of metabolic pathways, including blood plasma hydrolysis and liver functionalization or conjugation reactions that can have a significant effect on the kinetic properties of the tracer and, subsequently its usefulness in nuclear imaging. With this in mind, the in vitro plasma and liver microsome stability of lead candidate 20 were established by incubating the compound in mouse plasma proteins and human liver microsome enzymes, respectively, using previously described methodologies.[19]

[2] = intrinsic clearance in human liver microsomes; assay type: in vitro ADME; conditions: for microsomal CLint: human, liver microsomes
From the text: as §1

[3] = tested on: U87MG-Luc2 human glioblastoma tumor xenografts; experiment: ex vivo biodistribution in subcutaneous U87MG-Luc2 glioblastoma bearing nude mice; set-up: species or system mouse
Experimental: Following successful optimization of the radiochemistry, the behavior of [^18F]20 was investigated in vivo in mice bearing subcutaneous U87MG-Luc2 human glioblastoma tumor xenografts using ex vivo biodistribution and PET–MR imaging techniques. Ex vivo biodistribution of [^18F]20 was established at 30, 60, and 120 min after intravenous radiotracer administration, and PET data were acquired by performing a 45 min dynamic scan. […] This is in contrast to observations made by Carney et al., who reported <2%ID/g of bone of [^18F]8 at 120 min.[34] The high bone uptake seen with [^18F]20 could be explained by in vivo defluorination and subsequent radiofluoride accumulation in bone tissue.[35] Despite this, apparent radiotracer tumor uptake was identified in both biodistribution and PET–MR imaging experiments (Figures 3a,c), whereas in the case of the former, the mean ratio of %ID/g of glioblastoma tumor to muscle increased from 1.9 ± 0.5 (n = 4) to 3.6 ± 0.5 (n = 4) between the 30 and 120 min time points.
(§2) U87MG-Luc2 glioblastoma cell culture and implantation procedures were performed as reported previously.[19] Briefly, U87MG-Luc2 cells were purchased commercially from ATCC and cultured in minimum essential media that has been supplemented with 10% w/v fetal calf serum and 2 mM L-glutamine at 37 °C and 5% v/v CO2. Unconscious female CD1 nude mice (6–11 week old; purchased from Charles River Laboratories) had 5 × 10^6 U87MG-Luc2 cells injected subcutaneously into the right flank. The resulting tumor xenografts were measured and monitored visually every 3 days, and tumor-bearing animals were used for in vivo studies 28–30 days post-implantation.
(§3) Subcutaneous tumor bearing mice were administered 1.8–2.6 MBq of [^18F]20 in 0.11–0.21 mL of 5% v/v DMSO in 0.9% saline via bolus tail-vein injections. The remainder of the experiment was conducted as described previously.[19]

[4] = biological target: T1, PARP in U87MG-Luc2 human glioblastoma xenografts (Homo sapiens, UniProt P09874); experiment: ex vivo biodistribution with preblockade by nonradioactive 1; assay type: in vivo, mouse
T1 construct: from tissue; host or cells: subcutaneous U87MG-Luc2 human glioblastoma xenograft in female CD1 nude mice
T1 sequence (P09874 whole entry): as the sequence (P09874 whole entry, species assumed) above
Experimental: To establish the specificity of [^18F]20 for PARP in bone and tumor tissue, further biodistribution studies were performed on subcutaneous U87MG-Luc2 glioblastoma bearing mice that had PARP binding sites blocked by pretreatment with nonradioactive compound 1 at a dose of 50 mg/kg 20 min prior to [^18F]20 administration. […] This supports the earlier proposed possibility of in vivo [^18F]20 defluorination, leading to free radiofluoride accumulation in the bone.
as §2, §3

[5] = set-up: method as in PMID 26493053; conditions: at 120 min; cited from earlier work
[6] = experiment 1, read-out: Clint, experiment 1
[7] = experiment 2, read-out: Clint, experiment 2

SMILES	chromatographic logP [1]	fraction unbound (human serum albumin)	IC50 (PARP-1) [nM]	other results
Cc1cc(F)ccc1C(=O)N1CCN(C(=O)c2cc(Cc3n[nH]c(=O)c4ccccc34)ccc2F)CC1 [compound 10, 4-[3′-[4″-(4‴-Fluoro-2‴-methylbenzoyl)piperazine-1″-carbonyl]-4′-fluorobenzyl]-2H-phthalazin-1-one]	2.66	0.139	2.9	
O=C(c1ccc(CF)cc1)N1CCN(C(=O)c2cc(Cc3n[nH]c(=O)c4ccccc34)ccc2F)CC1 [compound 20]	2.51	0.107	2	stability in mouse plasma (mouse plasma stability; 20 h incubation in mouse plasma): negligible decomposition; plasma stability, 20 h (mouse plasma stability; mean percentage of parent compound remaining after 20 h incubation in mouse plasma): 95%; plasma stability, 0 h (mouse plasma stability; mean percentage of parent compound remaining, mouse plasma, 0 h): 93%; intrinsic clearance fold greater in comparison to 1 ([2]; compared with 1): approximately 3 fold; microsomal CLint [2, 6]: 74 µL/min/mg; microsomal CLint [2, 7]: 90 µL/min/mg; cell-free IC50 fold less than that of 1 (PARP-1; compared with 1): 6 fold; cell-free IC50 fold less than that of 8 (PARP-1; compared with 8): 3 fold
O=C(c1ccc(C[18F])cc1)N1CCN(C(=O)c2cc(Cc3n[nH]c(=O)c4ccccc34)ccc2F)CC1 [[^18F]20]				mean ratio of %ID/g of glioblastoma tumor to muscle, 30 min ([3]; 30 min after intravenous injection, n = 4): 1.9 ± 0.5; mean ratio of %ID/g of glioblastoma tumor to muscle, 120 min ([3]; 120 min after intravenous injection, n = 4): 3.6 ± 0.5; mean percentage of injected dose per gram (%ID/g) of femur tissue ([3]; across 30, 60 and 120 min after intravenous tracer administration): > 8.5%; ratio of %ID/g of tumor to muscle, preblockade using 1 ([4]; 60 min after [18F]20 administration, 50 mg/kg of 1 given 20 min prior, P < 0.05 vs vehicle): 1.07 ± 0.15; ratio of %ID/g of tumor to muscle, vehicle-pretreated mice ([4]; 60 min after [18F]20 administration, vehicle pretreatment): 1.79 ± 0.39; uptake in bone tissue in presence of excess nonradioactive 1 ([4]; 60 min after radioligand administration, 50 mg/kg of 1 pretreatment): not influenced
O=C(Cc1ccc(F)cc1)N1CCN(C(=O)c2cc(Cc3n[nH]c(=O)c4ccccc34)ccc2F)CC1 [compound 11, 4-[3′-[4″-[(4‴-Fluorophenyl)acetyl]piperazine-1″-carbonyl]-4′-fluorobenzyl]-2H-phthalazin-1-one]	2.67	0.101	1.3	
O=C(c1ccc([18F])cc1)N1CCN(C(=O)c2cc(Cc3n[nH]c(=O)c4ccccc34)ccc2F)CC1 [[^18F]8]				%ID/g of bone [5]: < 2 %ID/g
O=C(c1cc(Cc2n[nH]c(=O)c3ccccc23)ccc1F)N1CCN(Cc2ccc(F)cc2)CC1 [compound 13, 4-[3′-[4″-(4‴-Fluorobenzyl)piperazine-1″-carbonyl]-4′-fluorobenzyl]-2H-phthalazin-1-one]	3.14	0.053	11.2	

Now from value to compound, other results behind:

chromatographic logP [1]	fraction unbound (human serum albumin)	IC50 (PARP-1) [nM]	SMILES	other results
2.51	0.141		O=C(c1ccc(F)cc1)N1CCN(C(=O)c2cc(Cc3n[nH]c(=O)c4ccccc34)ccc2F)CC1 [compound 8, 4-[3′-[4″-(4‴-Fluorobenzoyl)piperazine-1″-carbonyl]-4′-fluorobenzyl]-2H-phthalazin-1-one]	
2.81	0.094	4.1	O=C(CCC(=O)N1CCN(C(=O)c2cc(Cc3n[nH]c(=O)c4ccccc34)ccc2F)CC1)c1ccc(F)cc1 [compound 12, 4-[3′-[4′′′′′-[(4‴-Fluorophenyl)butane-1′′′′,4′′′′-dione]-piperazine-1‴-carbonyl]4″-fluorobenzyl]-2H-phthalazin-1-one]	
2.46	0.136	3.6	O=C(c1ccccc1F)N1CCN(C(=O)c2cc(Cc3n[nH]c(=O)c4ccccc34)ccc2F)CC1 [compound 9, 4-[3′-[4″-(2‴-Fluorobenzoyl)piperazine-1″-carbonyl]-4′-fluorobenzyl]-2H-phthalazin-1-one]	
1.95			O=C(c1cc(Cc2n[nH]c(=O)c3ccccc23)ccc1F)N1CCN(C(=O)C2CC2)CC1 [compound 1, olaparib, reference compound]	%PPB (human serum albumin): 75.9%; microsomal CLint [2, 6]: 23 µL/min/mg; microsomal CLint [2, 7]: 34 µL/min/mg
